TD50 and carcinogen call data for five compounds are collected here from PubChem BioAssay AID1745844 (Carcinogenic Potency Database (CPDB), 2022).

Molecules are shown by their SMILES. Calls of active or inactive are those of the source. How the calls were made is not given here.

This data set deals with rodent lifetime carcinogenesis bioassay, tumor incidence TD50. Put plainly: chronic cancer bioassays in animals – CPDB, compiled studies (AID 1745844).

`Cn1c(N)nc2c3cccnc3ccc21`: the TD50 by setting is: (monkey, strain Cynomolgus [Macaca fascicularis], both sexes, by gavage, site: any site (literature study), lesion: malignant tumor, dosed 485 weeks, study length 485 weeks) 0.374 mg/kg/day; (monkey, strain Cynomolgus [Macaca fascicularis], both sexes, by gavage, site: liver, lesion: hepatocellular carcinoma, dosed 485 weeks, study length 485 weeks) 0.374 mg/kg/day; (mouse, strain CDF1, females, in feed, site: forestomach, lesion: several types, types named in the paper, dosed 96 weeks, study length 96 weeks) 62.4 mg/kg/day; (mouse, strain CDF1, females, in feed, site: liver, lesion: hepatocellular carcinoma, dosed 96 weeks, study length 96 weeks) 24.1 mg/kg/day; (mouse, strain CDF1, females, in feed, site: liver, lesion: several types, types named in the paper, dosed 96 weeks, study length 96 weeks) 17.5 mg/kg/day; (mouse, strain CDF1, females, in feed, site: lung, lesion: several types, types named in the paper, dosed 96 weeks, study length 96 weeks) 67.9 mg/kg/day. Further, the TD50 runs as follows: (mouse, strain CDF1, males, in feed, site: forestomach, lesion: several types, types named in the paper, dosed 96 weeks, study length 96 weeks) 42.3 mg/kg/day; (mouse, strain CDF1, males, in feed, site: forestomach, lesion: squamous-cell carcinoma, dosed 96 weeks, study length 96 weeks) 153 mg/kg/day; (mouse, strain CDF1, males, in feed, site: liver, lesion: hepatocellular carcinoma, dosed 96 weeks, study length 96 weeks) 91.6 mg/kg/day; (mouse, strain CDF1, males, in feed, site: liver, lesion: several types, types named in the paper, dosed 96 weeks, study length 96 weeks) 48.6 mg/kg/day; (mouse, strain CDF1, males, in feed, site: lung, lesion: adenocarcinoma, dosed 96 weeks, study length 96 weeks) 60.2 mg/kg/day; (mouse, strain CDF1, males, in feed, site: lung, lesion: several types, types named in the paper, dosed 96 weeks, study length 96 weeks) 22.4 mg/kg/day. Further, the TD50 (rat, strain F344/DuCrj, females, in feed, site: Zymbal's gland, lesion: squamous-cell carcinoma, dosed 72 weeks, study length 72 weeks) was 4.38 mg/kg/day; the TD50 (rat, strain F344/DuCrj, females, in feed, site: clitoral gland, lesion: squamous-cell carcinoma, dosed 72 weeks, study length 72 weeks) was 7.11 mg/kg/day; the TD50 (rat, strain F344/DuCrj, females, in feed, site: large intestine, lesion: adenocarcinoma, dosed 72 weeks, study length 72 weeks) is 19.3 mg/kg/day; the TD50 (rat, strain F344/DuCrj, females, in feed, site: liver, lesion: hepatocellular carcinoma, dosed 72 weeks, study length 72 weeks) is 8.24 mg/kg/day; the TD50 (rat, strain F344/DuCrj, females, in feed, site: oral cavity, lesion: squamous-cell carcinoma, dosed 72 weeks, study length 72 weeks) was 195 mg/kg/day; the TD50 (rat, strain F344/DuCrj, females, in feed, site: skin, lesion: squamous-cell carcinoma, dosed 72 weeks, study length 72 weeks) is 63.2 mg/kg/day. Further, the TD50 reads like this: (rat, strain F344/DuCrj, females, in feed, site: small intestine, lesion: adenocarcinoma, dosed 72 weeks, study length 72 weeks) 195 mg/kg/day; (rat, strain F344/DuCrj, males, in feed, site: Zymbal's gland, lesion: squamous-cell carcinoma, dosed 55 weeks, study length 55 weeks) 0.999 mg/kg/day; (rat, strain F344/DuCrj, males, in feed, site: large intestine, lesion: adenocarcinoma, dosed 55 weeks, study length 55 weeks) 2.34 mg/kg/day; (rat, strain F344/DuCrj, males, in feed, site: liver, lesion: hepatocellular carcinoma, dosed 55 weeks, study length 55 weeks) 2.08 mg/kg/day; (rat, strain F344/DuCrj, males, in feed, site: oral cavity, lesion: squamous-cell carcinoma, dosed 55 weeks, study length 55 weeks) 44.8 mg/kg/day; (rat, strain F344/DuCrj, males, in feed, site: skin, lesion: squamous-cell carcinoma, dosed 55 weeks, study length 55 weeks) 4.16 mg/kg/day. In addition, the TD50 by setting is: (rat, strain F344/DuCrj, males, in feed, site: small intestine, lesion: adenocarcinoma, dosed 55 weeks, study length 55 weeks) 6.45 mg/kg/day; (rat, strain Fischer 344, females, in feed, site: Zymbal's gland, lesion: one or several types, types not named, dosed 53 weeks, study length 78 weeks) 2.26 mg/kg/day; (rat, strain Fischer 344, females, in feed, site: liver, lesion: hepatocellular carcinoma, dosed 53 weeks, study length 78 weeks) 5.06 mg/kg/day; (rat, strain Fischer 344, females, in feed, site: lung, lesion: adenoma, dosed 53 weeks, study length 78 weeks) 16.2 mg/kg/day; (rat, strain Fischer 344, females, in feed, site: mammary gland, lesion: one or several types, types not named, dosed 53 weeks, study length 78 weeks) 3.52 mg/kg/day; (rat, strain Fischer 344, females, in feed, site: preputial gland, lesion: one or several types, types not named, dosed 53 weeks, study length 78 weeks) 3.19 mg/kg/day. In addition, the TD50 runs as follows: (rat, strain Fischer 344, females, in feed, site: sebaceous gland, lesion: several types, types named in the paper, dosed 53 weeks, study length 78 weeks) 32.9 mg/kg/day; (rat, strain Fischer 344, males, by gavage, site: Zymbal's gland, lesion: squamous-cell carcinoma, dosed 35 weeks, study length 52 weeks) 0.287 mg/kg/day; (rat, strain Fischer 344, males, by gavage, site: any site (literature study), lesion: several types, types named in the paper, dosed 35 weeks, study length 52 weeks) 0.287 mg/kg/day; (rat, strain Fischer 344, males, by gavage, site: colon, lesion: adenocarcinoma, dosed 35 weeks, study length 52 weeks) 0.803 mg/kg/day; (rat, strain Fischer 344, males, by gavage, site: liver, lesion: hepatocellular carcinoma, dosed 35 weeks, study length 52 weeks) 0.579 mg/kg/day; (rat, strain Fischer 344, males, by gavage, site: skin, lesion: squamous-cell carcinoma, dosed 35 weeks, study length 52 weeks) 0.579 mg/kg/day. Also, the TD50 was 1.55 mg/kg/day (rat, strain Fischer 344, males, by gavage, site: small intestine, lesion: adenocarcinoma, dosed 35 weeks, study length 52 weeks); 1.2 mg/kg/day (rat, strain Fischer 344, males, in feed, site: Zymbal's gland, lesion: one or several types, types not named, dosed 53 weeks, study length 63 weeks); 10.5 mg/kg/day (rat, strain Fischer 344, males, in feed, site: colon, lesion: one or several types, types not named, dosed 53 weeks, study length 63 weeks); 10.5 mg/kg/day (rat, strain Fischer 344, males, in feed, site: liver, lesion: hepatocellular carcinoma, dosed 53 weeks, study length 63 weeks); 27.1 mg/kg/day (rat, strain Fischer 344, males, in feed, site: lung, lesion: several types, types named in the paper, dosed 53 weeks, study length 63 weeks); 6.87 mg/kg/day (rat, strain Fischer 344, males, in feed, site: preputial gland, lesion: one or several types, types not named, dosed 53 weeks, study length 63 weeks). Further, under “rat, strain Fischer 344, males, in feed, site: sebaceous gland, lesion: several types, types named in the paper, dosed 53 weeks, study length 63 weeks”, the TD50 was 0.998 mg/kg/day.

Regarding `CCCCNNCCCC`, the TD50 is 198 mg/kg/day (mouse, strain Swiss albino, females, in drinking water, site: all sites, lesion: malignant lymphoma, dosed 93 weeks, study length 93 weeks); 69.8 mg/kg/day (mouse, strain Swiss albino, females, in drinking water, site: lung, lesion: several types, types named in the paper, dosed 93 weeks, study length 93 weeks); 886 mg/kg/day (mouse, strain Swiss albino, males, in drinking water, site: all sites, lesion: malignant lymphoma, dosed 87 weeks, study length 87 weeks); 449 mg/kg/day (mouse, strain Swiss albino, males, in drinking water, site: kidney, lesion: several types, types named in the paper, dosed 87 weeks, study length 87 weeks); 34.5 mg/kg/day (mouse, strain Swiss albino, males, in drinking water, site: lung, lesion: several types, types named in the paper, dosed 87 weeks, study length 87 weeks). Moreover, the carcinogen call runs as follows: (mouse, strain Swiss albino, females, in drinking water, site: liver, lesion: angioma, dosed 93 weeks, study length 93 weeks) “negative (inactive)”; (mouse, strain Swiss albino, females, in drinking water, site: liver, lesion: angiosarcoma, dosed 93 weeks, study length 93 weeks) “negative (inactive)”; (mouse, strain Swiss albino, males, in drinking water, site: liver, lesion: angioma, dosed 87 weeks, study length 87 weeks) “negative (inactive)”; (mouse, strain Swiss albino, males, in drinking water, site: liver, lesion: angiosarcoma, dosed 87 weeks, study length 87 weeks) “negative (inactive)”.

For `CN(N=O)C(=O)c1ccccc1`, the TD50 was 11.2 mg/kg/day (rat, strain MRC-Wistar, females, in drinking water, site: any site (literature study), lesion: several types, types named in the paper, dosed 52 weeks, study length 130 weeks); 2.49 mg/kg/day (rat, strain MRC-Wistar, males, in drinking water, site: any site (literature study), lesion: several types, types named in the paper, dosed 52 weeks, study length 130 weeks); 3.23 mg/kg/day (rat, strain MRC-Wistar, males, in drinking water, site: forestomach, lesion: several types, types named in the paper, dosed 52 weeks, study length 130 weeks); 9.66 mg/kg/day (rat, strain MRC-Wistar, males, in drinking water, site: forestomach, lesion: squamous-cell carcinoma, dosed 52 weeks, study length 130 weeks); 7.73 mg/kg/day (rat, strain MRC-Wistar, males, in drinking water, site: forestomach, lesion: squamous-cell papilloma, dosed 52 weeks, study length 130 weeks). Also, the carcinogen call is “negative (inactive)” (rat, strain MRC-Wistar, females, in drinking water, site: liver, lesion: one or several types, types not named, dosed 52 weeks, study length 130 weeks) and “negative (inactive)” (rat, strain MRC-Wistar, males, in drinking water, site: liver, lesion: one or several types, types not named, dosed 52 weeks, study length 130 weeks).

For the compound `NNc1ccccc1`, the TD50 was 147 mg/kg/day (mouse, strain Swiss albino, females, in drinking water, site: blood vessels, lesion: angioma, dosed 112 weeks, study length 112 weeks); 165 mg/kg/day (mouse, strain Swiss albino, females, in drinking water, site: blood vessels, lesion: angiosarcoma, dosed 112 weeks, study length 112 weeks); 72.1 mg/kg/day (mouse, strain Swiss albino, females, in drinking water, site: blood vessels, lesion: several types, types named in the paper, dosed 112 weeks, study length 112 weeks); 165 mg/kg/day (mouse, strain Swiss albino, females, in drinking water, site: liver, lesion: angioma, dosed 112 weeks, study length 112 weeks); 165 mg/kg/day (mouse, strain Swiss albino, females, in drinking water, site: liver, lesion: angiosarcoma, dosed 112 weeks, study length 112 weeks); 68.6 mg/kg/day (mouse, strain Swiss albino, females, in drinking water, site: liver, lesion: several types, types named in the paper, dosed 112 weeks, study length 112 weeks). In addition, the TD50 was 70.6 mg/kg/day (mouse, strain Swiss albino, males, in drinking water, site: blood vessels, lesion: several types, types named in the paper, dosed 112 weeks, study length 112 weeks) and 83.9 mg/kg/day (mouse, strain Swiss albino, males, in drinking water, site: liver, lesion: several types, types named in the paper, dosed 112 weeks, study length 112 weeks). Further, the carcinogen call was “negative (inactive)” (mouse, strain Swiss albino, females, in drinking water, site: lung, lesion: several types, types named in the paper, dosed 112 weeks, study length 112 weeks); “negative (inactive)” (mouse, strain Swiss albino, males, in drinking water, site: lung, lesion: several types, types named in the paper, dosed 112 weeks, study length 112 weeks); “negative (inactive)” (mouse, strain Swiss, females, by gavage, site: lung, lesion: one or several types, types not named, dosed 39 weeks, study length 55 weeks).

As for `FC(F)OC(Cl)C(F)(F)F` (centres undefined), the carcinogen call reads like this: (mouse, strain Swiss Webster, females, inhaled, site: liver, lesion: basophil adenoma, dosed 78 weeks, study length 81 weeks) “negative (inactive)”; (mouse, strain Swiss Webster, males, inhaled, site: liver, lesion: basophil adenoma, dosed 78 weeks, study length 81 weeks) “negative (inactive)”; (mouse, strain Swiss Webster, males, inhaled, site: lung, lesion: alveolar-cell adenoma, dosed 78 weeks, study length 81 weeks) “negative (inactive)”. Further, the TD50 (mouse, strain Swiss Webster, females, inhaled, site: lung, lesion: alveolar-cell adenoma, dosed 78 weeks, study length 81 weeks) was 30000 mg/kg/day (inactive).

As usually defined, the TD50 is the dose at which the toxic effect under study appears in half of the subjects.
